Assay results published in BindingDB's records for doi:10.1021/jm9706325 (Monash University (Parkville Campus), 1999).

Target: 5-hydroxytryptamine receptor 1D (Bos taurus)
Assay: Binding affinity against 5-hydroxytryptamine 1D receptor in calf caudate homogenates.

Row | Compound | Ki
1 | CN(C)CCc1c(C(=O)NCc2ccccc2)[nH]c2ccc(CCN3C(=O)CNC3=O)cc12 | 1320 nM
2 | CN(C)CCc1c(C(=O)NCc2ccccc2)[nH]c2ccc(CCN3C(=O)NC(C)(C)C3=O)cc12 | 3800 nM
